{"source": "patent US11266609B2", "about": "“Bacitracin and/or daptomycin combined with cannabidiol for treatment of bacterial infections” (priority 2017, dated 2022)", "key": {"MRSA USA300": {"system": "MRSA USA300", "test": "Micro dilution growth experiments using oCelloScope, CBD combined with antibiotics (FIG. 1)", "assay_type": "cell-based, Staphylococcus aureus", "conditions": "for synergistic potential in growth curves: combination with CBD 1-2 μg/mL, bacitracin 16, daptomycin 4, tetracycline 16, fosfomycin 16, dicloxacillin 0.0625, chlorhexidine 0.25, vancomycin 0.5 μg/mL (FIG. 1)", "protocol": "BCA: Background corrected absorption. ? Growth control, ? CBD, -▴- Antibiotic, ? Combination.\n(§1) The resistant bacterium MRSA USA300 FPR3757 (USA300) was the main used bacterium throughout this study. MRSA was grown in Brain Heart Infusion (BHI) or Müeller Hinton (MH) media on plate or in liquid cultures with agitation at 37° C.\nAn ON culture was made by inoculating a bacterial colony in either 5 mL of MH or BHI at incubated at 37° C. with agitation. 25 μL of specific concentrations of the antibiotic and cannabinoid to be tested was added to the desired wells of a sterile 96-well plate (Thermo Scientific). 25 μL of MH or BHI media was added to the wells only containing one of the two compounds tested. The bacterial ON culture was diluted to a final OD600 nm of 0.005 and 50 μL was dispensed into each well to a final volume of 100 μL. To decrease evaporation, 2 mL of pre-heated water was added to the corners of the 96-well plate containing cavities. The plate was placed in the oCelloScope inside an incubator at 37° C. Illumination level and focus was adjusted for each well and the growth was measured for approximately 25 hours. Measurements were performed every half an hour for the first half of the time and every hour for the last half using the UniExplorer software. Data retrieved was given in Background corrected absorption (BCA), formerly known as pixel histogram summation (PHS), an algorithm enabling determination of bacterial growth kinetics resulting from images taken with the oCelloScope camera.\nA) A screen was performed using the Philips oCelloScope enabling measurements of bacterial growth in presence or absence of either cannabidiol alone or in combination with an antibiotic or antimicrobial, through a 3D scanning system in 96-well plates."}, "MRSA USA300 FPR3757": {"system": "MRSA USA300 FPR3757", "test": "microbe, parasite or virus in culture", "assay_type": "cell-based, Staphylococcus aureus", "conditions": "for FIC Index: combination of cannabidiol with the respective antibiotic, synergy <= 0.5, no interaction 0.5-4.0, antagonism > 4", "protocol": "as §1\n(§2) An ON culture was made by inoculating a bacterial colony in either 5 mL of MH or BHI and incubating at 37° C. with agitation. The antibiotic of interest was added to a row of a sterile 96-well plate (VWR) and a serial dilution was made down the rows containing 50 μL of MH or BHI media in each well, resulting in 2-fold dilution for each row. The ON culture was diluted to OD625 at approximately 1.0 followed by a 1:100 dilution to approximately OD625=0.01 of which 50 μL was added to each well to a final volume of 100 μL. The 96-well plate was incubated at 37° C. with shaking at 225 rpm for approximately 18-24 hours. Presence and absence of growth were determined by visual appearance.\nB) The other screen was based on fractional inhibitory concentration (FIC) index."}, "[1]": {"system": "Gram-positive bacteria including methicillin-resistant Staphylococcus aureus (MRSA)", "conditions": "particularly against Gram-positive bacteria including MRSA; cited from earlier work"}, "[2]": {"target": "T1, bacterial undecaprenyl pyrophosphate (UPP) synthase (Staphylococcus aureus, UniProt P60477)", "T1 sequence (P60477 1-256)": "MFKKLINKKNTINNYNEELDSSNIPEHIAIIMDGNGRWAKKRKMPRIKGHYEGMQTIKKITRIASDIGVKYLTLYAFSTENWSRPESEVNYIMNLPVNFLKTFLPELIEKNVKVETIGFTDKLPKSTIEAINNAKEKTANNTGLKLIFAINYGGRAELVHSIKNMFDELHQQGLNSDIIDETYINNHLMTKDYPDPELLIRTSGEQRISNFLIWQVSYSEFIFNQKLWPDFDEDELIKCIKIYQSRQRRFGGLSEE", "conditions": "The Journal of Antibiotics 69, 798-805 (2016); cited from earlier work"}, "E. faecalis (16-7418)": {"system": "E. faecalis (16-7418)", "test": "microbe, parasite or virus in culture", "assay_type": "cell-based, Enterococcus faecalis", "conditions": "16-7418", "protocol": "(§3) Additional bacteria Enterococcus faecalis (13-327129), Enterococcus faecalis (16-7418), Methicillin-resistant Staphylococcus epidermidis (933010 3F-16 b4), Listeria monocytogenes EGD, Pseudomonas aeruginosa (PA01), Salmonella typhimurium (14028), Klepsiella pneumoniae (CAS55), Vibrio cholerae (A1522), and Escherichia coli (UTI89) were either grown in BHI or Lysogeny broth (LB) media.\nas §2, with “appearance. FIC index was calculated as follows (Alam M T et al. Antibacterial activity of different organic extracts of Achyranthes aspera and Cassia alata. J Sci Res. 2009).” for “appearance.”\n(§4) To study the bacterial spectrum of the combination, CBD and bacitracin growth measurements of other Gram-positive bacteria tests on Enterococcus faecalis, an MRSE strain and a strain of Listeria monocytogenes were performed as described in Example 1.\n(§5) The MIC for bacitracin and CBD and the respective FIC values are visualized in table 2 for the Gram-positive bacteria and are calculated based on two biological replicates."}, "E. faecalis (13-327129)": {"system": "E. faecalis (13-327129)", "test": "microbe, parasite or virus in culture", "assay_type": "cell-based, Enterococcus faecalis", "protocol": "as §3\nas §2, with “appearance. FIC index was calculated as follows (Alam M T et al. Antibacterial activity of different organic extracts of Achyranthes aspera and Cassia alata. J Sci Res. 2009).” for “appearance.”\nas §4, §5"}, "MRSE (933010 3F-16 b4)": {"system": "MRSE (933010 3F-16 b4)", "test": "microbe, parasite or virus in culture", "assay_type": "cell-based, Methicillin-resistant Staphylococcus epidermidis", "conditions": "MRSE (933010 3F-16 b4)", "protocol": "as §3\nas §2, with “appearance. FIC index was calculated as follows (Alam M T et al. Antibacterial activity of different organic extracts of Achyranthes aspera and Cassia alata. J Sci Res. 2009).” for “appearance.”\nas §4, §5"}, "L. monocytogenes EGD": {"system": "L. monocytogenes EGD", "test": "microbe, parasite or virus in culture", "assay_type": "cell-based, Listeria monocytogenes", "protocol": "as §3\nas §2, with “appearance. FIC index was calculated as follows (Alam M T et al. Antibacterial activity of different organic extracts of Achyranthes aspera and Cassia alata. J Sci Res. 2009).” for “appearance.”\nas §4, §5"}, "Vibrio cholerae (A1522)": {"system": "Vibrio cholerae (A1522)", "test": "microbe, parasite or virus in culture", "assay_type": "cell-based", "conditions": "Vibrio cholerae (A1522); above tested concentrations", "protocol": "as §3\nas §2, with “The 96-well plate was incubated at 37° C. with shaking at 225 rpm for approximately 18-24 hours.” left out, “appearance. FIC index was calculated as follows (Alam M T et al. Antibacterial activity of different organic extracts of Achyranthes aspera and Cassia alata. J Sci Res. 2009).” for “appearance.”\nTo further assess the spectrum of use for the combination of CBD and bacitracin, growth of Gram-negative bacteria upon treatment was measured as well as described in Example 1. […]"}}, "note": "Positions of bridges follow the written chain, without caps; N, C: chain ends. Non-standard residues stand in square brackets, D forms with d. Residues, ends and D or L forms follow the SMILES beside them. *: point of attachment. Ileψ(thiazoline)Cys = CC[C@H](C)[C@H](N)C1=N[C@H](C(=O)*)CS1; dOrn = NCCC[C@@H](N)C(=O)O", "data": [{"molecule": "C[C@@H]1O[C@@H]1P(=O)(O)O", "note": "[Fosfomycin]", "values": [{"measurement": "synergistic/antagonistic potential in growth curves, lower concentration", "setting": "MRSA USA300; combination with CBD 1 μg/mL, fosfomycin 8 μg/mL (FIG. 1E)", "value": "antagonistic potential"}, {"measurement": "synergistic potential in growth curves", "setting": "MRSA USA300", "value": "to some degree"}, {"measurement": "MIC", "setting": "MRSA USA300 FPR3757; Staphylococcus aureus", "value": 32, "unit": "µg/mL"}]}, {"molecule": "CO/N=C(\\C(=O)N[C@@H]1C(=O)N2C(C(=O)O)=C(CSc3nc(=O)c(=O)[nH]n3C)CS[C@H]12)c1csc(N)n1", "note": "[Ceftriaxone]", "values": [{"measurement": "MIC", "setting": "MRSA USA300 FPR3757; Staphylococcus aureus", "value": 32, "unit": "µg/mL"}, {"measurement": "FIC Index", "setting": "MRSA USA300 FPR3757; WT USA300", "value": 1.5}]}, {"molecule": "Viridicatumtoxin", "values": [{"measurement": "antimicrobial activity", "setting": "[1]", "value": "showed antimicrobial activity"}, {"measurement": "IC50", "setting": "[2]", "value": 4, "unit": "µM"}]}, {"molecule": "[H]/N=C(\\N/C(=N/[H])NCCCCCCNC(=N)NC(=N)Nc1ccc(Cl)cc1)Nc1ccc(Cl)cc1", "note": "[Chlorhexidine]", "values": [{"measurement": "synergistic potential in growth curves", "setting": "MRSA USA300", "value": "no synergistic potential"}, {"measurement": "MIC", "setting": "MRSA USA300 FPR3757; Staphylococcus aureus", "value": "1 to 2", "unit": "µg/mL"}, {"measurement": "FIC Index", "setting": "MRSA USA300 FPR3757; WT USA300", "value": 1}]}, {"molecule": "CC[C@H](C)[C@H](N)C1=N[C@H](C(=O)N[C@@H](CC(C)C)C(=O)N[C@H](CCC(=O)O)C(=O)N[C@H](C(=O)N[C@H]2CCCCNC(=O)[C@H](CC(N)=O)NC(=O)[C@@H](CC(=O)O)NC(=O)[C@H](Cc3cnc[nH]3)NC(=O)[C@@H](Cc3ccccc3)NC(=O)[C@H]([C@@H](C)CC)NC(=O)[C@@H](CCCN)NC2=O)[C@@H](C)CC)CS1", "note": "[Bacitracin] ({Ileψ(thiazoline)Cys}-L[dE]IK[dOrn]I[dF]H[dD]N; lactam 4-C)", "values": [{"measurement": "MIC", "setting": "E. faecalis (16-7418)", "value": 128, "unit": "µg/mL"}, {"measurement": "MIC", "setting": "E. faecalis (13-327129); 13-327129", "value": 128, "unit": "µg/mL"}, {"measurement": "Fold decreased bacitracin", "setting": "E. faecalis (13-327129); E. faecalis (13-327129), bacitracin MIC combined with CBD compared to bacitracin alone", "value": 16, "unit": "fold"}, {"measurement": "MIC", "setting": "MRSE (933010 3F-16 b4)", "value": 32, "unit": "µg/mL"}, {"measurement": "Fold decreased bacitracin", "setting": "MRSE (933010 3F-16 b4); bacitracin MIC combined with CBD compared to bacitracin alone", "value": 64, "unit": "fold"}, {"measurement": "synergistic potential in growth curves", "setting": "MRSA USA300", "value": "synergistic potential"}, {"measurement": "MIC", "setting": "L. monocytogenes EGD; EGD", "value": 512, "unit": "µg/mL"}, {"measurement": "Fold decreased bacitracin", "setting": "L. monocytogenes EGD; L. monocytogenes EGD, bacitracin MIC combined with CBD compared to bacitracin alone", "value": "8-16 fold"}, {"measurement": "MIC", "setting": "Vibrio cholerae (A1522)", "value": ">1024", "unit": "µg/mL"}, {"measurement": "MIC", "setting": "MRSA USA300 FPR3757; MRSA USA300 FPR3757, Table 2, two biological replicates", "value": 64, "unit": "µg/mL"}, {"measurement": "Fold decreased bacitracin", "setting": "MRSA USA300 FPR3757; MRSA USA300 FPR3757, bacitracin MIC combined with CBD compared to bacitracin alone", "value": "16-32 fold"}, {"measurement": "MIC", "setting": "MRSA USA300 FPR3757; WT USA300", "value": 64, "unit": "µg/mL"}, {"measurement": "FIC Index", "setting": "MRSA USA300 FPR3757; WT USA300", "value": 0.30}]}, {"molecule": "CN[C@H](CC(C)C)C(=O)N[C@H]1C(=O)N[C@@H](CC(N)=O)C(=O)N[C@H]2C(=O)N[C@H]3C(=O)N[C@H](C(=O)N[C@H](C(=O)O)c4cc(O)cc(O)c4-c4cc3ccc4O)[C@H](O)c3ccc(c(Cl)c3)Oc3cc2cc(c3O[C@@H]2O[C@H](CO)[C@@H](O)[C@H](O)[C@H]2O[C@H]2C[C@](C)(N)[C@H](O)[C@H](C)O2)Oc2ccc(cc2Cl)[C@H]1O", "note": "[Vancomycin]", "values": [{"measurement": "synergistic potential in growth curves", "setting": "MRSA USA300", "value": "no synergistic potential"}, {"measurement": "MIC", "setting": "MRSA USA300 FPR3757; Staphylococcus aureus", "value": 2, "unit": "µg/mL"}, {"measurement": "FIC Index", "setting": "MRSA USA300 FPR3757; WT USA300", "value": 2}]}]}
